“Also recorded” adds a separate entry of the source.
How the values were obtained:
[1] = tested on: MKL1-dependent and -independent SRF pathways; test: Gene set enrichment of SRF pathways in C2C12 myotubes; assay type: cell-based; conditions: compared with control BSA treated cells
[2] = tested on: SRF; test: Low density DNA binding arrays, SRF DNA binding activity; assay type: cell-based; conditions: C2C12 myotubes
Method: To explore the above possibility, DNA binding activity of SRF and it co-factor ELK1 to the target gene promoter was first evaluated. To this end, electrophoretic mobility shift assays (EMSA) were performed. […] In support to this idea, in low density DNA binding arrays, SRF DNA binding activity was dramatically (5-10 fold, respectively) increased in primary myotubes from insulin resistant human and free fatty acid (FFA)-treated C2C12 myotubes compared to control.

[3] = tested on: SRF transcriptional activity; test: SRF transcriptional activity, 4x CArG (SRE) promoter luciferase reporter in C2C12 cells; assay type: cell-based
From the text: To determine whether SRF transcriptional activity is also changed in insulin resistance, 4× tandem repeat of SRF binding element (SRE) CArG boxes (Kuwahara et al., Mol. Cell Biol. 25:3173-3181 (2005)) promoters linked to a luciferase gene were used as a reporter.

[4] = tested on: GLUT4; test: GLUT4 expression in myotubes; assay type: cell-based; conditions: CCG-1423 treatment, p<0.004
From the text: (§1) Since CCG-1423 increased insulin signalling in myotubes, we hypothesized that CCG-1423 might also enhance glucose uptake. In DMSO (vehicle)-treated myotubes, insulin stimulated a 2-fold increase in deoxyglucose uptake in a dose-dependent manner, consistent with prior reports and the low insulin responsiveness in cultured myotubes (FIG. 11E). […] In parallel, expression of the dominant glucose transporters GLUT4 and GLUT1 was increased by CCG-1423 treatment by 4.1 and 2.5 fold, respectively (p<0.004).

[5] = tested on: GLUT1; test: GLUT1 expression in myotubes; assay type: cell-based; conditions: CCG-1423 treatment, p<0.004
From the text: as §1

[6] = tested on: mice with diet-induced obesity; test: CCG-1423 treatment of mice with diet-induced obesity (HFD); assay type: in vivo
Method: To examine the therapeutic potential of this SRF inhibitor in vivo, we assessed responses to CCG-1423 treatment in mice with diet-induced obesity. […] The HFD mice were administered CCG-1423 (0.15 mg/kg body weight intraperitoneally) for two weeks.
In parallel, the high insulin levels associated with insulin resistance were normalized by CCG-1423 treatment (FIG. 13C).

[7] = tested on: MKL1; test: MKL1 cellular localization in C2C12 myoblasts; assay type: cell-based
[8] = tested on: p42/44 ERK; test: ERK phosphorylation in C2C12 myotubes (phosphoimmunoblot); assay type: cell-based; conditions: overnight 1 μM CCG-1423, FIG. 11C
Method: (§2) In parallel, CCG-1423 enhanced insulin action in C2C12 myotubes. Overnight treatment with 1 μM CCG-1423 increased insulin-stimulated Akt phosphorylation, both in the presence and absence of dexamethasone (41% for both, p=0.01 and p=0.007, respectively), while having no effect on p42/44 ERK phosphorylation (FIG. 11C).

[9] = tested on: IRS-1; test: IR / IRS-1 tyrosine phosphorylation and p85 PI 3-kinase association in myotubes; assay type: cell-based
From the text: FIG. 11D is a phosphoimmunoblot showing that CCG-1423 increases basal and insulin-stimulated tyrosine phosphorylation of IRS-1 and its association with p85-PI 3-kinase, in both control and DEX-treated myotubes. * indicates p<0.05, **p<0.01, ***p<0.001.
(§3) The molecular mechanism of the ability of CCG-1423 to reverse insulin resistance was further explored. The insulin—insulin receptor (1R)—insulin receptor substrate (IRS-1) pathway is the dominant up-stream signalling activator of Akt.
as §2

[10] = tested on: Akt; test: Akt phosphorylation in myotubes (phosphoimmunoblot); assay type: cell-based; conditions: for increase of insulin-stimulated Akt phosphorylation: C2C12 myotubes
Method: (§4) siRNA was used to specifically reduce MKL1 expression, achieving an effective knockdown of about 60%. This increased insulin-stimulated phosphorylation of Akt (Ser473), expressed relative to total Akt protein content, by 2-fold (p<0.01). […] Thus, siRNA-mediated reduction in MKL1 expression enhances both basal and insulin-stimulated glucose uptake in cultured myotubes.
The next experiments were performed to determine whether SRF transcriptional activity, rather than expression of SRF itself, is important for maintaining appropriate insulin sensitivity. A new compound, CCG-1423, is available for specifically inhibiting SRF transcriptional activity (Evelyn et al., Mol. Cancer. Ther. 6:2249-2260 (2007)). […] CCG-1423 was then evaluated to test the possibility that reducing SRF transcriptional activity improves insulin sensitivity. Indeed, this is the case. A dramatic improvement in insulin sensitivity resulted from treatment with CCG-1423 in dexamethasone-induced insulin resistant myotubes, as CCG-1423 increased insulin-simulated Akt phosphorylation (a marker of insulin sensitivity) (FIG. 11A).
as §2

[11] = tested on: C2C12 myotubes; test: Deoxyglucose uptake in cultured (C2C12) myotubes; assay type: cell-based; conditions: FIG. 11E
From the text: as §4, §1

[12] = tested on: SRF target gene expression; test: SRF target gene expression in CCG-1423 treated cells; assay type: cell-based; conditions: basal or insulin stimulated state
From the text: as §3

[13] = tested on: human myotubes; test: Basal glucose uptake in human myotubes from control and diabetic subjects; assay type: cell-based
Method: The effects of CCG-1423 on human myotubes, and whether these effects would differ in myotubes derived from controls (n=2) vs. diabetic subjects (n=6), were also evaluated. […] The differential responsiveness in subjects with DM supports the concept that SRF pathways are more robustly activated in humans with insulin resistance and DM, and therefore potentially more sensitive to SRF inhibition.

[14] = tested on: L6 myotubes; test: 2-deoxyglucose uptake in L6 myotubes; assay type: cell-based; conditions: CCG-1423 1 uM, 16 hours, FIG. 11E
Method: FIG. 11E is a line graph showing that both basal and insulin-stimulated 2-deoxyglucose uptake are increased by >4-fold in L6 myotubes following CCG-1423, with enhanced insulin sensitivity (1 uM, 16 hours). * indicates p<0.05, **p<0.01, ***p<0.001.

[15] = tested on: STARS; test: STARS expression in C2C12 myotubes after actin disruption; assay type: cell-based; conditions: p<0.03, not shown
From the text: Additional pathway analysis using MAPPFinder confirmed that serum response factor (SRF)-dependent and actin-related cytoskeleton gene expression is increased in diabetes, and more importantly, also in insulin resistance. The top-ranking single gene differentially expressed in skeletal muscle in the fasting state is the Actin-binding Rho activating protein (ABRA), or STARS, increased by 2.5 fold in individuals with type 2 diabetes (p<0.01). This gene regulates intracellular actin dynamics and subcellular localization of MKL1/2, thus contributing to SRF-dependent gene transcription. Since disruption of actin by latrunculin B increases STARS expression in C2C12 cells by 50% in C2C12 myotubes (p<0.03, not shown), it was hypothesize that increased STARS expression in DM may reflect disruption of actin dynamics and also contribute to the pattern of increased SRF-related gene expression. Similar patterns of SRF-dependent expression are also observed in adipose tissue from insulin resistant subjects and in insulin resistant muscle.

SMILES: CCCCCCCCCCCCCCCC(=O)O [FFA]
- enrichment of MKL1-dependent and -independent SRF pathways [1]: significant enrichment
- increase of SRF DNA binding activity compared to control [2]: 5-10 fold
- SRF transcriptional activity at basal level ([3]; C2C12 myotubes, experimentally induced insulin resistance, FIG. 4): dramatically increased

SMILES: CC(ONC(=O)c1cc(C(F)(F)F)cc(C(F)(F)F)c1)C(=O)Nc1ccc(Cl)cc1 (stereo not shown) [CCG-1423]
- GLUT4 expression increase [4]: 4.1 fold
- GLUT1 expression increase [5]: 2.5 fold
- serum insulin levels during glucose tolerance test ([6]; 15 minutes after glucose injection, HFD+CCG vs vehicle-treated HFD, FIG. 13C): normalized; also recorded: significantly reduced
- expression of SRF or ELK1 ([6]; HFD mice, 0.15 mg/kg intraperitoneally, two weeks): did not alter
- expression of SRF targets in skeletal muscle, e.g., ZYX and PDLIM7 ([6]; HFD mice, 0.15 mg/kg intraperitoneally, two weeks, vs vehicle-injected controls): significantly decreased
- food intake ([6]; HFD mice, 0.15 mg/kg intraperitoneally, two weeks, vs vehicle-treated HFD mice): No significant change
- body weight ([6]; HFD mice, 0.15 mg/kg intraperitoneally, two weeks, vs vehicle-treated HFD mice, FIG. 12, 0.15 mg/kg): No significant change; also recorded: not altered
- glucose tolerance test area under the curve (AUC) ([6]; HFD+CCG vs vehicle-treated HFD animals, FIG. 13B, p<0.006): significantly reduced
- adiponectin levels ([6]; HFD-fed mice): No differences
- circulating fatty acid levels ([6]; HFD-fed mice): No differences
- insulin tolerance testing ([6]; HFD-fed mice): No differences
- in vivo glucose tolerance (intra peritoneal glucose tolerance test) ([6]; HFD-fed mice vs HFD-fed vehicle-treated controls, FIG. 13A): significantly improved; also recorded: improves
- MKL1 localization ([7]; compound alone): almost exclusively localized to the cytoplasm
- MKL1 localization, effect on dexamethasone-induced nuclear localization ([7]; with dexamethasone): reversed dexamethasone-induced MKL1 nuclear localization to partial cytoplasmic localization
- p42/44 ERK phosphorylation [8]: no effect; also recorded: minimal change
- p85 expression ([9]; C2C12 myotubes): without altering
- basal and insulin-stimulated tyrosine phosphorylation of IRS-1 and its association with p85 PI 3-kinase ([9]; control and DEX-treated myotubes, FIG. 11D): increases
- phosphorylation of IR and IRS-1 protein ([9]; with insulin stimulation): massive phosphorylation
- increase of insulin-stimulated Akt phosphorylation ([10]; overnight 1 μM CCG-1423, absence of dexamethasone, p=0.007): 41%
- increase of insulin-stimulated Akt phosphorylation ([10]; overnight 1 μM CCG-1423, presence of dexamethasone, p=0.01): 41%
- insulin-stimulated Akt phosphorylation (marker of insulin sensitivity) ([10]; dexamethasone-induced insulin resistant myotubes, FIG. 11A): increased; also recorded: improves
- insulin-stimulated Akt phosphorylation ([10]; insulin 100 nM, 10 minutes, FIG. 11C): increases
- insulin-stimulated deoxyglucose uptake response ([11]; myotubes incubated with CCG-1423, 1 uM insulin): 11.5 fold
- glucose uptake increase in the basal state ([11]; myotubes incubated with CCG-1423): 4 fold
- SRF-mediated transcriptional activity (4x CArG / SRE promoter activity) ([3]; C2C12 myoblasts, serum (FBS 2 hours) or dexamethasone stimulation, CCG-1423 1 uM, 16 hours pre-treatment, FIG. 11B): efficiently blocked
- SRF transcriptional activity induced by serum, dexamethasone, and insulin ([3]; C2C12 myotubes, FIG. 10): specifically block; also recorded: inhibits
- SRF target gene expression [12]: does not induces
- basal increase in glucose uptake (mean) ([13]; myotubes from control subjects (n=2)): 1.2 fold
- basal increase in glucose uptake (mean) ([13]; myotubes from diabetic subjects (n=6)): 3.2 fold
- basal and insulin-stimulated 2-deoxyglucose uptake increase [14]: > 4 fold

SMILES: C/C1=C/C(=O)O[C@@H]2C[C@@H](CC[C@H](C)/C=C\CC1)O[C@@](O)([C@@H]1CSC(=O)N1)C2 [latrunculin B]
- increase of STARS expression [15]: 50%

From patent US8524661B2, “Inhibiting serum response factor (SRF) to improve glycemic control” (Joslin Diabetes Center, Inc., priority 2008, dated 2013)
